These results are taken from PMC4804716 (The FEBS journal, 2015).

The target in series [1] is T1, human glutathione reductase (hGR) (Homo sapiens, UniProt P00390).
T1 sequence (P00390 1-479 isoform P00390-2): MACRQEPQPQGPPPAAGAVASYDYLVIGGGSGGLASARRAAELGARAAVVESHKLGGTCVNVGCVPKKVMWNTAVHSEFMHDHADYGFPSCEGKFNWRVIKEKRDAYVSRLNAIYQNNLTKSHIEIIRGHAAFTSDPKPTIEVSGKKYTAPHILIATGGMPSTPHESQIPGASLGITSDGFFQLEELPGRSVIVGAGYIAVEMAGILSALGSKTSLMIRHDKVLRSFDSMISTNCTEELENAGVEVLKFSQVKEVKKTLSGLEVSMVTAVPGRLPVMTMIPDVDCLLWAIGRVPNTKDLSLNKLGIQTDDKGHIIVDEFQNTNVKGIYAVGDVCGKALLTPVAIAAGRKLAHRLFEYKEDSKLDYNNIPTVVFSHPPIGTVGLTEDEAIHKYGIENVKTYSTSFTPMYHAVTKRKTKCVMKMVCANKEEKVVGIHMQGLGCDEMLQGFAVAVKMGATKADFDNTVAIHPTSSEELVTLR
Put plainly: hGR assay. It is filed as biochemical.

The next series has as its system S. mansoni worms. Nature of the series: Antischistosomal activity against adult, ex vivo worms. As to conditions: for antischistosomal activity against cultured ex vivo worms: 50 μM compound alone. The class given is cell-based, Schistosoma mansoni.
Series [2] concerns the target T2, Placenta wild type hTrxR (Homo sapiens, UniProt Q16881).
T2 sequence (Q16881 1-499 isoform Q16881-5): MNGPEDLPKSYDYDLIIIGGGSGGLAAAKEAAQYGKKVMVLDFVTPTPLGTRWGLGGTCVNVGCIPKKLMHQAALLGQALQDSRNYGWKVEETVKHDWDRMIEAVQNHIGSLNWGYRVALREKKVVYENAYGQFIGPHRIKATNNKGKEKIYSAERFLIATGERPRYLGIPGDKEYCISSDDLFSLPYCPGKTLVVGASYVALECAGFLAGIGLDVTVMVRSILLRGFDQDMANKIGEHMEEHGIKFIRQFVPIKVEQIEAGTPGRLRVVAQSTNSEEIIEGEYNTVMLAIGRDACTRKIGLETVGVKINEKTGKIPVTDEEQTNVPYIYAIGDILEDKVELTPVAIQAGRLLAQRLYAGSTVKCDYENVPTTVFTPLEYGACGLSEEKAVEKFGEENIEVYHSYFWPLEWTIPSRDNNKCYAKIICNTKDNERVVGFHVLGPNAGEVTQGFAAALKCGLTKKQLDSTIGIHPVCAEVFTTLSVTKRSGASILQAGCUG
Put plainly: hTrxR Trx assay. It is filed as biochemical.

Series [3] can be described thus: Cyclic voltammetry of menadione derivatives. It is filed as physicochemical. As to conditions: for Epa1 / Ipc1/Ipa1 / E^1½: first wave; for Ipc1/Ipa1 / ΔEp (first wave): 0.1 M n-Bu4NPF6, v = 200 mV s^−1; for E^1½: 0.1 M n-Bu4NPF6, reference KCl(3 M)/Ag/AgCl; for ΔEp (first wave): ΔE = Epa-Epc.
Another series addresses T3, Sec498Cys TrxR (Homo sapiens, UniProt Q16881).
T3 sequence (Q16881 with tags, fused parts or gaps isoform Q16881-5): T2 sequence (Q16881 1-499 isoform Q16881-5) with U498C
Put plainly: hTrxR mutant DTNB assay. It is filed as biochemical.

Series [4] has as its target T4, Schistosoma mansoni thioredoxin glutathione reductase (SmTGR) (Schistosoma mansoni, UniProt Q962Y6).
T4 sequence (Q962Y6 1-598): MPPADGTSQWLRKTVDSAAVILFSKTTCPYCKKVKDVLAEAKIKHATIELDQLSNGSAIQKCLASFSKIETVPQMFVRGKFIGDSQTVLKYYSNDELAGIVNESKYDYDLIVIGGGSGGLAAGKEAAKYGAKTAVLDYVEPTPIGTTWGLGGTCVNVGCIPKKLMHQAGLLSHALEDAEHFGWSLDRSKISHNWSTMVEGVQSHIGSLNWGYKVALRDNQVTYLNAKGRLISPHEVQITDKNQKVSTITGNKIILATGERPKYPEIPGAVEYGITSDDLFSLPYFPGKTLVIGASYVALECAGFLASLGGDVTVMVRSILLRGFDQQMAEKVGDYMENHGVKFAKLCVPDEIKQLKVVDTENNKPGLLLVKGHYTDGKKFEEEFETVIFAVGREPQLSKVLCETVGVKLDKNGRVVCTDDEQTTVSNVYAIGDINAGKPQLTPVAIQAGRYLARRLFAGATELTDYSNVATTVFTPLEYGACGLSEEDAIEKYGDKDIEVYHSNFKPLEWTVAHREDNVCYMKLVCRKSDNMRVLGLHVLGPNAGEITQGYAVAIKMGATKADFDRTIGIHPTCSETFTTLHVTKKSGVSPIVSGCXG

In series [5] the target is T4, Schistosoma mansoni thioredoxin glutathione reductase (SmTGR). Nature of the series: SmTGR DTNB assay. The class given is biochemical.
Series [6] deals with T2, Placenta wild type hTrxR. Put plainly: hTrxR DTNB assay. It is filed as biochemical.
A short description of series [7]: Cytotoxicity against human MRC-5 cells. The class given is cell-based. As to conditions: human lung MRC-5 fibroblasts (MRC-5SV2 cells).
Series [8] addresses T4, Schistosoma mansoni thioredoxin glutathione reductase (SmTGR). Nature of the series: Time-dependent inactivation of SmTGR. As to conditions: high inhibitor concentrations, 5 min incubation without NADPH.
Series [9] can be described thus: Glutathionylation reaction kinetics. It is filed as physicochemical. As to conditions: pH 7.5.
A short description of series [10]: pKa estimation by absorption spectrophotometry. The class given is physicochemical.
The mark [11] stands for this setting: DMSO, 0.1 M n-Bu4NPF6, v = 200 mV s^−1, reference KCl(3 M)/Ag/AgCl.
Where [12] appears, read: second wave, irr: irreversible reduction.

Substitutions are numbered along the chain they refer to.

On to `COc1ccc(OCC2=C(C)C(=O)c3ccccc3C2=O)cc1C(F)(F)F` [Compound 7, 2-((4-Methoxy-3-(trifluoromethyl)phenoxy)methyl)-3-methylnaphthalene-1,4-dione], for which the IC50 (in general, the concentration needed to halve the response being measured) in series [1] is 12000 nM; at Placenta wild type hTrxR [2] (IC50 hTrxR, text summary spanning the Trx assay and the DTNB assay), 800 to 1500 nM; on Sec498Cys TrxR it was over 50000 nM; in series [5], 200 nM; on Placenta wild type hTrxR [6], 1500 nM. Besides, the “antischistosomal activity against cultured ex vivo worms” value in the series with S. mansoni worms is given as “active”. Moreover, in the series with S. mansoni worms (50 μM, human red blood cells 10 μl/well, 24 hours), the “survival rates in the presence versus absence of RBCs after 24 hours” value is given as “identical”. In addition, the “dead parasites in the absence versus presence of RBCs after 48 hours” value with S. mansoni worms (50 μM, human red blood cells 10 μl/well, 48 hours) is listed as “more parasites were dead in the absence of RBCs than in the presence of RBCs”. Moreover, the “IC50 fold higher for hTrxR than for SmTGR” value on Placenta wild type hTrxR [2] (selectivity hTrxR versus SmTGR) is “around 5 fold”. Moreover, the Epa1 in [3] (setting [11]) is −0.506 V. The Epc2 in [3] (DMSO, 0.1 M n-Bu4NPF6, v = 200 mV s^−1, reference KCl(3 M)/Ag/AgCl, second wave) is −1.132 V. In addition, the Ipc1/Ipa1 in [3] (DMSO) was 2.92. Further, in [3] (E½ = (Epc+Epa)/2, DMSO), the “E^1½” value is on record as −0.563 V. For the same compound, the “E^2½” value in series [3] (E½ = (Epc+Epa)/2, second wave, irr: irreversible reduction) was −1.126 V. In [3] (setting [12]), this compound displayed an Epa2 of −1.120 V. Further, in series [3] (setting [12]), the Ipc2/Ipa2 was 1.75. In [3] (DMSO), the “ΔEp (first wave)” value is 114 mV. Further, the ΔE½ in [3] (ΔE½ = E^1½-E^2½) was found to be 563 mV. In addition, the “second order rate constant ki/KI” value in series [4] is 1180 M⁻¹ s⁻¹.
On to `COc1ccc(OCC2=C(C(F)F)C(=O)c3ccccc3C2=O)cc1C(F)(F)F` [Compound 9, 2-(difluoromethyl)-3-((4-methoxy-3-(trifluoromethyl)phenoxy)methyl)naphthalene-1,4-dione], for which the “antischistosomal activity against cultured ex vivo worms” value with S. mansoni worms was “inactive”. In addition, in the series with S. mansoni worms (50 μM, with or without human red blood cells (10 μl/well)), the “killing of worms whether RBCs were present or not” value was “no effect on killing the worms”. The compound also displayed an Epa1 in series [3] (setting [11]) of −0.215 V. Moreover, in series [3] (DMSO), the Ipc1/Ipa1 is reported as 1.67 and the “ΔEp (first wave)” value is 111 mV. In addition, in series [3] (E½ = (Epc+Epa)/2, DMSO), the “E^1½” value is reported as −0.271 V. Further, half-maximal inhibition in series [7] (IC50 at 3 days) was put at 11200 nM. For the same compound, in series [8], the “SmTGR inactivation in the absence of NADPH” value is “resulted in inactivation”. Further, the “decrease of the k2 values compared to the difluoromenadione itself” value in series [9] was about 10 fold. Moreover, the pKa (as a rule, the negative logarithm of the acid dissociation constant) in series [10] is about 7.1. Moreover, the IC50 in series [5] was determined as 46 nM.
